Results: US20250228239A1, “MOLECULES HAVING PESTICIDAL UTILITY, AND INTERMEDIATES, COMPOSITIONS, AND PROCESSES, RELATED THERETO” (priority 2024, published 2025)
Where two headings read alike, the source gives them in different places.

Assays:
[1] = tested on: Beet Armyworm (Spodoptera exigua, LAPHEG); assay: Bioassays on Beet Armyworm (BAW), 128-well diet tray assay; assay type: in vivo; conditions: Spodoptera exigua
In short: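 Eight diet wells per compound were treated at 50 μg/cm^2 (acetone-water 90:10), dried, then infested with 1–5 second-instar larvae each. After five to seven days at 25 °C under 14:10 photoperiod, mortality was scored and averaged across wells.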

[2] = tested on: Cabbage Looper (Trichoplusia ni, TRIPNI); assay: Bioassays on Cabbage Looper (CL), 128-well diet tray assay; assay type: in vivo; conditions: Trichoplusia ni
In short: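 Percent mortality, averaged across eight replicate wells, after second-instar larvae (1–5 per well) fed for five to seven days on diet dosed at 50 μg/cm^2. Compound was applied in acetone-water 90:10 and dried; trays kept vented at 25° C under 14:10 photoperiod.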

[3] = Beet Armyworm, rating class, read-out: BAW
[4] = Cabbage Looper, rating class, read-out: CL
[5] = Table ABC: Biological Results, species BAW, read-out: BAW
[6] = Table ABC: Biological Results, species CL, read-out: CL
[7] = Beet Armyworm, Table ABC / ABC-DP rating, read-out: BAW rating
[8] = Cabbage Looper, Table ABC / ABC-DP rating, read-out: CL rating

| Structure (SMILES) | pest or weed control at 50 µg/cm2 [1, 3] | pest or weed control at 50 µg/cm2 [2, 4] | pest or weed control at 50 µg/cm2 [1, 5] | pest or weed control at 50 µg/cm2 [2, 6] | also measured |
| --- | --- | --- | --- | --- | --- |
| O=C(Nc1c(F)ccc(NC(=O)C(F)(F)C(F)F)c1F)c1cc(NC(=O)[C@H]2[C@H](c3ccc(F)c(C(F)(F)F)c3)C2(Cl)Cl)ccc1Cl [F1564, 2-Chloro-5-((1R,3R)-2,2-dichloro-3-(4-fluoro-3-(trifluoromethyl)phenyl)cyclopropane-1-carboxamido)-N-(2,6-difluoro-3-(2,2,3,3-tetrafluoropropanamido)phenyl)benzamide] | 50 to 100% | 50 to 100% | – | – | – |
| O=C(Nc1cc(NC(=O)C(F)F)c(F)cc1F)c1cc(NC(=O)[C@H]2[C@H](c3cc(Cl)cc(Cl)c3)C2(Cl)Cl)cc(F)c1Cl [F1408, 2-Chloro-5-((1R,3R)-2,2-dichloro-3-(3,5-dichlorophenyl)cyclopropane-1-carboxamido)-N-(5-(2,2-difluoroacetamido)-2,4-difluorophenyl)-3-fluorobenzamide] | 50 to 100% | 50 to 100% | – | – | – |
| COc1c(Cl)cc(NC(=O)[C@H]2[C@H](c3ccc(F)c(Cl)c3)C2(Cl)Cl)cc1C(=O)Nc1ccc(F)cc1 (relative stereo) [F1235, trans-3-Chloro-5-(2,2-dichloro-3-(3-chloro-4-fluorophenyl)cyclopropane-1-carboxamido)-N-(4-fluorophenyl)-2-methoxybenzamide] | – | – | 50 to 100% | 50 to 100% | – |
| O=C(Nc1c(F)ccc(NC(=O)C(F)F)c1F)c1cc(NC(=O)[C@H]2[C@H](c3cc(Cl)c(Cl)c(Cl)c3)C2(Cl)Cl)cc(F)c1Cl [F1343, 2-Chloro-5-((1R,3R)-2,2-dichloro-3-(3,4,5-trichlorophenyl)cyclopropane-1-carboxamido)-N-(3-(2,2-difluoroacetamido)-2,6-difluorophenyl)-3-fluorobenzamide] | – | – | 50 to 100% | 50 to 100% | – |
| O=C(Nc1ccc(F)c(Br)c1F)c1cc(NC(=O)[C@H]2[C@H](c3cc(Cl)cc(Cl)c3)C2(Cl)Cl)ccc1Cl (relative stereo) [F1307, trans-N-(3-Bromo-2,4-difluorophenyl)-2-chloro-5-(2,2-dichloro-3-(3,5-dichlorophenyl)cyclopropane-1-carboxamido)benzamide] | – | – | 50 to 100% | 50 to 100% | – |
| CN(NC(=O)c1cc(NC(=O)[C@H]2[C@H](c3cc(Cl)cc(Cl)c3)C2(Cl)Cl)ccc1Cl)C(=O)c1ccccc1 (relative stereo) [F2527, trans-N-(3-(2-Benzoyl-2-methylhydrazine-1-carbonyl)-4-chlorophenyl)-2,2-dichloro-3-(3,5-dichlorophenyl)cyclopropane-1-carboxamide] | – | – | – | – | pest or weed control at 50 µg/cm2 [1, 7]: 50 to 100%; pest or weed control at 50 µg/cm2 [2, 8]: 50 to 100% |
| O=C(Nc1c(F)ccc(NC(=O)C(F)(F)F)c1F)c1cc(NC(=O)[C@H]2[C@H](c3ccc(Cl)c(Cl)c3)C2(Cl)Cl)ccc1F [F1513, 5-((1R,3R)-2,2-Dichloro-3-(3,4-dichlorophenyl)cyclopropane-1-carboxamido)-N-(2,6-difluoro-3-(2,2,2-trifluoroacetamido)phenyl)-2-fluorobenzamide] | 50 to 100% | 50 to 100% | – | – | – |
| Cc1ccc(CNc2ccc(NC(=O)c3cc(NC(=O)[C@H]4[C@H](c5cc(Cl)cc(Cl)c5)C4(Cl)Cl)ccc3Cl)c(C)c2)cc1 (relative stereo) [F1041, trans-2-Chloro-5-(2,2-dichloro-3-(3,5-dichlorophenyl)cyclopropane-1-carboxamido)-N-(2-methyl-4-((4-methylbenzyl)amino)phenyl)benzamide] | – | – | 50 to 100% | 50 to 100% | – |
| CC(OC(F)(F)F)C(=O)Nc1c(F)ccc(NC(=O)c2cc(NC(=O)[C@H]3[C@H](c4cc(F)cc(C(F)(F)F)c4)C3(Cl)Cl)ccc2Cl)c1F (stereo partly drawn) [F1773, 2-Chloro-5-((1R,3R)-2,2-dichloro-3-(3-fluoro-5-(trifluoromethyl)phenyl)cyclopropane-1-carboxamido)-N-(2,4-difluoro-3-(2-(trifluoromethoxy)propanamido)phenyl)benzamide] | – | – | – | – | pest or weed control at 50 µg/cm2 [1, 7]: 50 to 100%; pest or weed control at 50 µg/cm2 [2, 8]: 50 to 100% |
